Assay results: patent publication US10246469B2, “Biaryl kinase inhibitors” (BRISTOL-MYERS SQUIBB COMPANY, priority 2015, dated 2019)
pIC50: −log10 of the molar value.

Target: T1, GST-Xa-hAAK1 (Homo sapiens, UniProt Q2M2I8)
T1 construct: GST (N); Factor Xa cleavage site (Xa) (internal); made in house
Test: AAK1 Kinase Assay
Type: biochemical
Conditions: bacterially expressed GST-Xa-hAAK1 3.5 nM; ATP 22 μM; fluoresceinated peptide 1.5 μM; 3 hours at room temperature; Caliper LabChip 3000
Procedure: The assays were performed in U-bottom 384-well plates. The final assay volume was 30 μl prepared from 15 μl additions of enzyme and substrates (fluoresceinated peptide (5-FAM)-Aha-[…]-NH2 and ATP) and test compounds in assay buffer (10 mM Tris-HCL pH 7.4, 10 mM MgCl2, 0.01% Tween-20 and 1.0 mM DTT). The reactions were initiated by the combination of bacterially expressed, GST-Xa-hAAK1 with substrates and test compounds. The reactions were incubated at room temperature for 3 hours and terminated by adding 60 μl of 35 mM EDTA buffer to each sample. The reactions were analyzed on the Caliper LabChip 3000 (Caliper, Hopkinton, Mass.) by electrophoretic separation of the fluorescent substrate and phosphorylated product. […] The final concentration of reagents in the assays are ATP, 22 μM; (5-FAM)-Aha-[…]-NH2, 1.5 μM; GST-Xa-hAAK1, 3.5 nM; and DMSO, 1.6%. […] Compounds were dissolved at 10 mM in dimethylsulfoxide (DMSO) and evaluated at eleven concentrations. IC50 values were derived by non-linear regression analysis.

T1 sequence (Q2M2I8 whole entry): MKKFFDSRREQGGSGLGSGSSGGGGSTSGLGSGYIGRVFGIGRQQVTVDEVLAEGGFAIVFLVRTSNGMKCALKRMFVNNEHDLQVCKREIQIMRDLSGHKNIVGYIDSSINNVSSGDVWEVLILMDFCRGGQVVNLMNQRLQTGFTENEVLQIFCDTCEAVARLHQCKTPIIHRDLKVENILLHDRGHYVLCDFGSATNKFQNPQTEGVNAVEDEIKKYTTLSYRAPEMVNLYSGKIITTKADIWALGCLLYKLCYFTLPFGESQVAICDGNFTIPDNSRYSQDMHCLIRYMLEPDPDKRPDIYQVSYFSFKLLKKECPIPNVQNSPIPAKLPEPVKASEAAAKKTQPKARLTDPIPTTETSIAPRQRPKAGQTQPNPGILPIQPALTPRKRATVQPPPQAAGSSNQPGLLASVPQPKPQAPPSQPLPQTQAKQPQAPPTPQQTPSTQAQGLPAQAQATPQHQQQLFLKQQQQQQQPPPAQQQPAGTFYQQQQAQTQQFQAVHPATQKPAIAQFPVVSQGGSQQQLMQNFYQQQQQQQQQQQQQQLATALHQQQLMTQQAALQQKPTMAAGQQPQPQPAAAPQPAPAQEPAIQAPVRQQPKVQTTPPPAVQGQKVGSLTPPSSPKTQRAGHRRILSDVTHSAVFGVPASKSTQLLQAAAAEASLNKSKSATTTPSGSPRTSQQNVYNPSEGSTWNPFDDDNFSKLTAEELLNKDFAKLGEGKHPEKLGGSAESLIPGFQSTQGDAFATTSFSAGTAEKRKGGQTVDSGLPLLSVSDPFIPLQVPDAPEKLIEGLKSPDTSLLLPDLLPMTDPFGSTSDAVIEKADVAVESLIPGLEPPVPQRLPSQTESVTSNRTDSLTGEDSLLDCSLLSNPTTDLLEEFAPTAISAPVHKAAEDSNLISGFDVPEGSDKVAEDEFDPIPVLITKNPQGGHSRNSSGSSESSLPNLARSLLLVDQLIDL

Q: How did the pIC50 turn out when `CC(C)C[C@](C)(N)COc1ncc(-c2cc(NC3CCOC3)ncn2)cc1Cl` (stereo partly drawn) [Example 449, 6-(6-(((S)-2-amino-2,4-dimethylpentyl)oxy)-5-chloropyridin-3-yl)-N-(tetrahydrofuran-3-yl)pyrimidin-4-amine] was run?
A: 6.45

Q: `CC(C)C[C@](C)(N)COc1ccc(-c2ccnc3cc[nH]c23)cc1C(F)(F)F` [Example 424, (S)-1-(4-(1H-pyrrolo[3,2-b]pyridin-7-yl)-2-(trifluoromethyl)phenoxy)-2,4-dimethylpentan-2-amine] was tested. Which pIC50 did it give?
A: 8.92

Q: With `Cc1nccc(-c2cnc(OCC3(N)CCC3)c(C)c2)n1` [Example 347, 1-(((3-methyl-5-(2-methylpyrimidin-4-yl)pyridin-2-yl)oxy)methyl)cyclobutanamine] as the compound, how does the pIC50 read?
A: 6.02

Q: With `CC(C)C[C@](C)(N)COc1ccc(-c2cc(N)nc3ccnn23)cc1F` [Example 457, (S)-7-(4-((2-amino-2,4-dimethylpentyl)oxy)-3-fluorophenyl)pyrazolo[1,5-a]pyrimidin-5-amine] as the compound, how does the pIC50 read?
A: 6.80

Q: How did the pIC50 turn out when `CC(C)C[C@](C)(N)COc1ccc(-c2ccnc3c2C(=O)NC3)cc1F` [Example 416, (S)-4-(4-((2-amino-2,4-dimethylpentyl)oxy)-3-fluorophenyl)-6,7-dihydro-5H-pyrrolo[3,4-b]pyridin-5-one] was run?
A: 7.03

Q: With `CC(C)C[C@](C)(N)COc1ccc(-c2ccnc3ccnn23)cc1F` [Example 461, (S)-1-(2-fluoro-4-(pyrazolo [1,5-a]pyrimidin-7-yl)phenoxy)-2,4-dimethylpentan-2-amine] as the compound, how does the pIC50 read?
A: 8.54

Q: `Cc1cc(-c2ccc(OC[C@@](C)(N)CC(C)C)c(Cl)c2)n2nc(C)cc2n1` [Example 459, (S)-1-(2-chloro-4-(2,5-dimethylpyrazolo[1,5-a]pyrimidin-7-yl)phenoxy)-2,4-dimethylpentan-2-amine] was tested. Which pIC50 did it give?
A: 5.90

Q: `CC(C)C[C@](C)(N)COc1ccc(-c2ccnn3cc(C4CC4)nc23)cc1F` [Example 493, (S)-1-(4-(2-cyclopropylimidazo[1,2-b]pyridazin-8-yl)-2-fluorophenoxy)-2,4-dimethylpentan-2-amine] was tested. Which pIC50 did it give?
A: 7.82

Q: With `CC(C)C[C@](C)(N)COc1ccc(-c2ccnc(NC(=O)c3nccs3)c2)cc1C(F)(F)F` [Example 258, (S)—N-(4-(4-((2-amino-2,4-dimethylpentyl)oxy)-3-(trifluoromethyl)phenyl)pyridin-2-yl)thiazole-2-carboxamide] as the compound, how does the pIC50 read?
A: 9.33

Q: `CC(C)C[C@](C)(N)COc1ccc(-c2ccnc3c2CC(=O)N3)cc1C#N` [Example 302, (S)-2-((2-amino-2,4-dimethylpentyl)oxy)-5-(2-oxo-2,3-dihydro-1H-pyrrolo[2,3-b]pyridin-4-yl)benzonitrile] was tested. Which pIC50 did it give?
A: 8.28

Q: How did the pIC50 turn out when `CCN1Cc2nccc(-c3ccc(OC[C@@](C)(N)CC(C)C)c(F)c3)c2C1=O` [Example 419, (S)-4-(4-((2-amino-2,4-dimethylpentyl)oxy)-3-fluorophenyl)-6-ethyl-6,7-dihydro-5H-pyrrolo [3,4-b]pyridin-5-one] was run?
A: 5.94

Q: With `COCc1nc2c(-c3ccc(OC[C@@](C)(N)CC(C)C)c(C)c3)ccnc2[nH]1` [Example 296, (S)-1-(4-(2-(methoxymethyl)-3H-imidazo[4,5-b]pyridin-7-yl)-2-methylphenoxy)-2,4-dimethylpentan-2-amine] as the compound, how does the pIC50 read?
A: 6.88

Q: `CC(C)C[C@](C)(N)COc1ccc(-c2ccnn3ccnc23)cc1C(F)(F)F` [Example 283, (S)-1-(4-(imidazo[1,2-b]pyridazin-8-yl)-2-(trifluoromethyl)phenoxy)-2,4-dimethylpentan-2-amine] was tested. Which pIC50 did it give?
A: 9.40

Q: How did the pIC50 turn out when `CC(C)C[C@](C)(N)COc1ccc(-c2ccnc(NC(=O)C3=NNC(=O)CC3)c2)cc1C(F)(F)F` [Example 407, (S)—N-(4-(4-((2-amino-2,4-dimethylpentyl)oxy)-3-(trifluoromethyl)phenyl)pyridin-2-yl)-6-oxo-1,4,5,6-tetrahydropyridazine-3-carboxamide] was run?
A: 9.10

Q: How did the pIC50 turn out when `CC(=O)NCC(=O)Nc1cc(-c2ccc(OC[C@@](C)(N)CC(C)C)c(C(F)(F)F)c2)ccn1` [Example 402, (S)-2-acetamido-N-(4-(4-((2-amino-2,4-dimethylpentyl)oxy)-3-(trifluoromethyl)phenyl)pyridin-2-yl)acetamide] was run?
A: 9.30

Q: How did the pIC50 turn out when `CC(C)C[C@](C)(N)COc1ccc(-c2ccnc3ccnn23)cc1C(F)(F)F` [Example 467, (S)-2,4-dimethyl-1-(4-(pyrazolo[1,5-a]pyrimidin-7-yl)-2-(trifluoromethyl)phenoxy)pentan-2-amine] was run?
A: 9.40

Q: How did the pIC50 turn out when `CC(C)C[C@](C)(N)COc1ccc(-c2ccnc3[nH]ncc23)cc1Cl` [Example 284, (S)-1-(2-chloro-4-(1H-pyrazolo[3,4-b]pyridin-4-yl)phenoxy)-2,4-dimethylpentan-2-amine] was run?
A: 9.22

Q: `CC(C)C[C@](C)(N)COc1ccc(-c2ccnc3cc[nH]c23)cc1C#N` [Example 421, (S)-2-((2-amino-2,4-dimethylpentyl)oxy)-5-(1H-pyrrolo[3,2-b]pyridin-7-yl)benzonitrile] was tested. Which pIC50 did it give?
A: 9.30

Q: `CC(C)C[C@](C)(N)COc1ccc(-c2ccnc3ccnn23)cc1Cl` [Example 456, (S)-1-(2-chloro-4-(pyrazolo [1,5-a]pyrimidin-7-yl)phenoxy)-2,4-dimethylpentan-2-amine] was tested. Which pIC50 did it give?
A: 9.00

Q: How did the pIC50 turn out when `CC(C)C[C@](C)(N)COc1ccc(-c2cc(=O)[nH]cn2)cc1Cl` [Example 509, (S)-6-(4-((2-amino-2,4-dimethylpentyl)oxy)-3-chlorophenyl)pyrimidin-4(3H)-one] was run?
A: 8.21

Q: How did the pIC50 turn out when `CC(C)C[C@](C)(N)COc1ccc(-c2ccnc3cc[nH]c23)cc1F` [Example 420, (S)-1-(2-fluoro-4-(1H-pyrrolo[3,2-b]pyridin-7-yl)phenoxy)-2,4-dimethylpentan-2-amine] was run?
A: 8.96

Q: With `CC(C)C[C@@](C)(N)COc1ncc(-c2ccnc3ccnn23)cc1Cl` [Example 265, (R)-1-((3-chloro-5-(pyrazolo[1,5-a]pyrimidin-7-yl)pyridin-2-yl)oxy)-2,4-dimethylpentan-2-amine] as the compound, how does the pIC50 read?
A: 7.26

Q: `CC(C)C[C@](C)(N)COc1ccc(-c2cc(NC3CCCOC3)ncn2)cc1C(F)(F)F` (stereo partly drawn) [Example 358, 6-(4-(((S)-2-amino-2,4-dimethylpentyl)oxy)-3-(trifluoromethyl)phenyl)-N-(tetrahydro-2H-pyran-3-yl)pyrimidin-4-amine] was tested. Which pIC50 did it give?
A: 6.41

Q: How did the pIC50 turn out when `Cc1cc(-c2ccnc3cc(C4CC4)nn23)cnc1OC[C@](C)(N)CC(C)C` [Example 266, (R)-1-((5-(2-cyclopropylpyrazolo[1,5-a]pyrimidin-7-yl)-3-methylpyridin-2-yl)oxy)-2,4-dimethylpentan-2-amine] was run?
A: 6.58

Q: `CC(C)C[C@](C)(N)COc1ccc(-c2ccnc(NC(=O)C3CCCC3)c2)cc1C(F)(F)F` [Example 391, (S)—N-(4-(4-((2-amino-2,4-dimethylpentyl)oxy)-3-(trifluoromethyl)phenyl)pyridin-2-yl)cyclopentanecarboxamide] was tested. Which pIC50 did it give?
A: 9.30

Q: How did the pIC50 turn out when `CC(C)C[C@](C)(N)COc1ccc(-c2ccnc(NC(=O)c3nccs3)c2)cc1C#N` [Example 261, (S)—N-(4-(4-((2-amino-2,4-dimethylpentyl)oxy)-3-cyanophenyl)pyridin-2-yl)thiazole-2-carboxamide] was run?
A: 9.44

Q: How did the pIC50 turn out when `Cc1cc(-c2ccnn3cc(C(F)(F)F)nc23)cnc1OC[C@](C)(N)CC(C)C` [Example 504, (R)-2,4-dimethyl-1-((3-methyl-5-(2-(trifluoromethyl)imidazo[1,2-b]pyridazin-8-yl)pyridin-2-yl)oxy)pentan-2-amine] was run?
A: 6.22

Q: With `CC(C)C[C@](C)(N)COc1ccc(-c2ccnc3ccnn23)cc1C(F)F` [Example 351, (S)-1-(2-(difluoromethyl)-4-(pyrazolo[1,5-a]pyrimidin-7-yl)phenoxy)-2,4-dimethylpentan-2-amine] as the compound, how does the pIC50 read?
A: 9.40

Q: How did the pIC50 turn out when `CC(C)C[C@](C)(N)COc1cnc(-c2ccnc3ccnn23)cc1C#N` [Example 486, (S)-5-((2-amino-2,4-dimethylpentyl)oxy)-2-(pyrazolo[1,5-a]pyrimidin-7-yl)isonicotinonitrile] was run?
A: 5.86

Q: How did the pIC50 turn out when `Cc1nccc(-c2ccc(OC[C@@](C)(N)CC(C)C)c3ncsc23)n1` [Example 342, (S)-2,4-dimethyl-1-((7-(2-methylpyrimidin-4-yl)benzo[d]thiazol-4-yl)oxy)pentan-2-amine] was run?
A: 7.41

Q: `CC(C)C[C@](C)(N)COc1ccc(-c2ccnc(NC(=O)c3cccs3)c2)cc1C(F)(F)F` [Example 403, (S)—N-(4-(4-((2-amino-2,4-dimethylpentyl)oxy)-3-(trifluoromethyl)phenyl)pyridin-2-yl)thiophene-2-carboxamide] was tested. Which pIC50 did it give?
A: 9.30

Q: `CC(C)C[C@](C)(N)COc1ccc(-c2ccnc3nccnc23)cc1F` [Example 253, (S)-1-(2-fluoro-4-(pyrido[2,3-b]pyrazin-8-yl)phenoxy)-2,4-dimethylpentan-2-amine] was tested. Which pIC50 did it give?
A: 6.27

Q: With `Cc1cc(-c2ccc(OC[C@@](C)(N)CC(C)C)c(C#N)c2)n2nc(C)cc2n1` [Example 464, (S)-2-((2-amino-2,4-dimethylpentyl)oxy)-5-(2,5-dimethylpyrazolo[1,5-a]pyrimidin-7-yl)benzonitrile] as the compound, how does the pIC50 read?
A: 6.31

Q: How did the pIC50 turn out when `CC(C)C[C@](C)(N)COc1ccc(-c2ccnc3ccnn23)nc1C(F)F` [Example 322, (S)-1-((2-(difluoromethyl)-6-(pyrazolo[1,5-a]pyrimidin-7-yl)pyridin-3-yl)oxy)-2,4-dimethylpentan-2-amine] was run?
A: 9.40
